Test results published in ChEMBL document CHEMBL1140387, “1-Aryl-3,4-dihydro-1H-quinolin-2-one derivatives, novel and selective norepinephrine reuptake inhibitors” (Bioorg Med Chem Lett, 2005).

Legend:
[1] = target: T1, Sodium-dependent dopamine transporter (Homo sapiens, UniProt Q01959); assay: Inhibition of monoamine reuptake at dopamine transporter
[2] = target: T2, Sodium-dependent serotonin transporter (Homo sapiens, UniProt P31645); assay: Inhibition of monoamine reuptake at serotonin transporter
Target sequence in this assay (P31645 whole entry): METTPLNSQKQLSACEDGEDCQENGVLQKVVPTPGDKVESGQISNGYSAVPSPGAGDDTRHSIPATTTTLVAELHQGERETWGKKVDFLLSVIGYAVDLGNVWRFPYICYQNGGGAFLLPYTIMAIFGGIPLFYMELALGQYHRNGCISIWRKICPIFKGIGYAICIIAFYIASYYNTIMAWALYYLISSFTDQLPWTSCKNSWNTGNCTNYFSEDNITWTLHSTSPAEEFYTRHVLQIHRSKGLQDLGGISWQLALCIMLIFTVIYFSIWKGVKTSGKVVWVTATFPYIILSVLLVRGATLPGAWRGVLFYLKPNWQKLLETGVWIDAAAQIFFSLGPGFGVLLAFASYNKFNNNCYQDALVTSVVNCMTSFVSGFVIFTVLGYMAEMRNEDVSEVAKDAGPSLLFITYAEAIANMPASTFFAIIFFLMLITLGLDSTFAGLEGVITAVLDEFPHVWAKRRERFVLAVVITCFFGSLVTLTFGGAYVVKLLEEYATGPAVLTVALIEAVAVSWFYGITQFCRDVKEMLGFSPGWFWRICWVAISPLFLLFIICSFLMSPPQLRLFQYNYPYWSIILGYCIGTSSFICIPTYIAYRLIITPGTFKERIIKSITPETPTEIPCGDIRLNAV

[3] = target: T1, Sodium-dependent dopamine transporter; assay: Percentage displacement of [3H]WIN-35428 radioligand from dopamine transporter at concentration of 1000 nM
[4] = target: T2, Sodium-dependent serotonin transporter; assay: Percentage displacement of [3H]citalopram radioligand from serotonin transporter at concentration of 100 nM
Target sequence in this assay (P31645 whole entry, looked up): as the sequence (P31645 whole entry) above

[5] = target: T3, Sodium-dependent noradrenaline transporter (Homo sapiens, UniProt P23975); assay: Percentage displacement of [3H]nisoxetine radioligand from norepinephrine transporter at concentration of 1000 nM
T3 sequence (P23975 whole entry): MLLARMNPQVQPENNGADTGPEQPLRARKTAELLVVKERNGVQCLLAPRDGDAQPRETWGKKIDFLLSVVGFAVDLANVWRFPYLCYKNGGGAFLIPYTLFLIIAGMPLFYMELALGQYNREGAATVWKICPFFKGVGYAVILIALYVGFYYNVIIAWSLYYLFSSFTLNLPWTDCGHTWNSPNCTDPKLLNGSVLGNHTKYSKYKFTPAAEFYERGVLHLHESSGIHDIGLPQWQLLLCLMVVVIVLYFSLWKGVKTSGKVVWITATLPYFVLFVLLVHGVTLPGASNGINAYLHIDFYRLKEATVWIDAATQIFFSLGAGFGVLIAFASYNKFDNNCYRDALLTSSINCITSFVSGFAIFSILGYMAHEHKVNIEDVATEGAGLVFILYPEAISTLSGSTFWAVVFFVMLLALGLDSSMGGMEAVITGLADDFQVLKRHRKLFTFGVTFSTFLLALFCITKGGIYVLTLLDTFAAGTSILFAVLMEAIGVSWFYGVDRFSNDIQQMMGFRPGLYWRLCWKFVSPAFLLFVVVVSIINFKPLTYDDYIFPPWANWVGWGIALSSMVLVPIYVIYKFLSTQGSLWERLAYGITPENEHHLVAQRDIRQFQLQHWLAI

[6] = target: T3, Sodium-dependent noradrenaline transporter; assay: Inhibition of monoamine reuptake at norepinephrine transporter

T1 sequence (Q01959 whole entry): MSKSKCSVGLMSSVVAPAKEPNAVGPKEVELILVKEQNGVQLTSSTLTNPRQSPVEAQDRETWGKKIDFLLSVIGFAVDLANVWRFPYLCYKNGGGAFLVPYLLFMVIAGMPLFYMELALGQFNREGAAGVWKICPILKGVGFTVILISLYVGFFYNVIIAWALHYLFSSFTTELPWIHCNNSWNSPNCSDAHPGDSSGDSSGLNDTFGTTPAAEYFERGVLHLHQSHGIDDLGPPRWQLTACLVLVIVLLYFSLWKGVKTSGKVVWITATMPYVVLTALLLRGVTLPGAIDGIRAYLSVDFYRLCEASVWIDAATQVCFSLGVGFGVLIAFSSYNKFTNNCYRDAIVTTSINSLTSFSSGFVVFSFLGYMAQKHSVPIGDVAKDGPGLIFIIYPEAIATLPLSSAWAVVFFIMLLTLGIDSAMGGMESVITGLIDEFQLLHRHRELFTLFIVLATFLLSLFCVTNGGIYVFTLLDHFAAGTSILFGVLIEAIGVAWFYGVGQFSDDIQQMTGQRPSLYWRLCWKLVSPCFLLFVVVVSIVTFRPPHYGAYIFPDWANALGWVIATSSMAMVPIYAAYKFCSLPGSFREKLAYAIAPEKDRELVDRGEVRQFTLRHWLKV

Ki [1] | Ki [2] | Activity [3] | Activity [4] | Ki [6] | Structure (SMILES) | Activity [5]
> 200 nM | > 100 nM | – | – | 54 nM | CNCCC1Cc2ccccc2N(c2ccccc2)C1=O (stereo in doubt) [listing 1 of 2 here] | –
– | – | 13% | 1% | – | CNCCC1Cc2ccccc2N(c2ccccc2)C1=O (single isomer, unassigned; isomer 1) [listing 1 of 2 here] | –
> 200 nM | 160 nM | 9% | – | 11 nM | CCCC1(CCCNC)Cc2ccccc2N(c2ccc(C)cc2)C1=O (racemic) | –
> 200 nM | > 100 nM | 10% | 9% | 18 nM | CNCCCC1Cc2ccccc2N(c2cccc(F)c2)C1=O (racemic) | –
> 200 nM | > 100 nM | 12% | 1% | 1430 nM | CNCCCC1Cc2ccccc2N(c2ccc(C(F)(F)F)cc2)C1=O (racemic) | –
– | > 100 nM | – | 15% | 43 nM | CNCCCC1(C)Cc2cc(Cl)ccc2N(c2ccc(C)cc2)C1=O (racemic) | –
– | – | 9% | 9% | – | CNCCC1Cc2ccccc2N(c2ccccc2)C1=O (stereo in doubt) [listing 2 of 2 here] | –
> 200 nM | > 100 nM | 50% | 11% | 77 nM | CNCCCC1(C)Cc2ccccc2N(c2ccc(F)c(F)c2)C1=O (racemic) | –
– | – | 11% | 5% | – | CNCCCC1Cc2ccccc2N(c2ccccc2)C1=O (single isomer, unassigned; isomer 1) [listing 1 of 2 here] | –
> 200 nM | > 100 nM | – | – | 8 nM | CNCCCC1Cc2ccccc2N(c2ccccc2)C1=O (single isomer, unassigned; isomer 1) [listing 2 of 2 here] | –
> 200 nM | > 100 nM | 3% | 12% | 9 nM | CNCCCC1(C)Cc2ccccc2N(c2ccc(C)cc2)C1=O (racemic) | –
> 200 nM | > 100 nM | 50% | 8% | 21 nM | CNCCCC1Cc2ccccc2N(c2ccc(Cl)cc2)C1=O (centres undefined) | –
> 200 nM | > 100 nM | 6% | 12% | 10 nM | CCC1(CCCNC)Cc2ccccc2N(c2ccccc2)C1=O (racemic) | –
> 200 nM | > 100 nM | – | – | 10 nM | CNCCCC1Cc2ccccc2N(c2ccccc2)C1=O (racemic) [listing 1 of 2 here] | –
> 200 nM | > 100 nM | 19% | 15% | 3 nM | CNCCCC1Cc2ccccc2N(c2ccc(C)cc2)C1=O (racemic) | –
13 nM | > 100 nM | – | 8% | 62 nM | CNCCCC1Cc2ccccc2N(c2ccc(Cl)c(Cl)c2)C1=O (racemic) | –
– | – | 24% | 0% | – | CNCCCC1Cc2ccccc2N(c2ccccc2)C1=O (racemic) [listing 2 of 2 here] | –

Ki [1] | Ki [2] | Activity [3] | Activity [4] | Ki [6] | Structure (SMILES) | Activity [5]
> 200 nM | – | 18% | – | 8 nM | CCCCC1(CCCNC)Cc2ccccc2N(c2ccc(C)cc2)C1=O (racemic) | –
> 200 nM | > 100 nM | 5% | 45% | 5 nM | CNCCCC1Cc2cc(F)ccc2N(c2ccc(C)cc2)C1=O (racemic) | –
> 200 nM | > 100 nM | 9% | 9% | 146 nM | CNCCCC1(C)Cc2ccccc2N(c2cccc(C)c2)C1=O (racemic) | –
> 200 nM | 128 nM | 3% | – | 47 nM | CCC1(CCCNC)Cc2cc(Cl)ccc2N(c2ccc(C)cc2)C1=O (racemic) | –
> 200 nM | > 100 nM | 3% | 51% | 7 nM | CCCC1(CCCNC)Cc2ccccc2N(c2ccccc2)C1=O (racemic) | –
> 200 nM | > 100 nM | 9% | 3% | 150 nM | CCc1ccc(N2C(=O)C(CCCNC)Cc3ccccc32)cc1 (racemic) | –
> 200 nM | – | 7% | – | 150 nM | CNCCCC1(C(C)C)Cc2ccccc2N(c2ccc(C)cc2)C1=O (racemic) | –
> 200 nM | > 100 nM | – | – | 38 nM | CNCCC1Cc2ccccc2N(c2ccccc2)C1=O (single isomer, unassigned; isomer 1) [listing 2 of 2 here] | –
> 200 nM | > 100 nM | 5% | 7% | 92 nM | CNCCCC1Cc2ccccc2N(c2ccc(F)cc2)C1=O (racemic) | –
> 200 nM | > 100 nM | 11% | 11% | 17 nM | CCC1(CCCNC)Cc2ccccc2N(c2ccc(C)cc2)C1=O (racemic) | –
> 200 nM | > 100 nM | 19% | 9% | 165 nM | CNCCCC1(C)Cc2ccccc2N(c2cc(F)cc(F)c2)C1=O (racemic) | –
> 200 nM | > 100 nM | 7% | 15% | 6 nM | CNCCCC1Cc2cc(Cl)ccc2N(c2ccc(C)cc2)C1=O (racemic) | –
– | – | 5% | 4% | – | CNCCCC1Cc2ccccc2N(c2ccccc2)C1=O (stereo in doubt) [listing 1 of 2 here] | –
> 200 nM | > 100 nM | 10% | 9% | 44 nM | CNCCCC1(C)Cc2ccccc2N(c2ccccc2)C1=O (racemic) | –
> 200 nM | > 100 nM | – | – | 190 nM | CNCCCC1Cc2ccccc2N(c2ccccc2)C1=O (stereo in doubt) [listing 2 of 2 here] | –
> 200 nM | > 100 nM | 64% | 7% | 79 nM | CNCCCC1Cc2ccccc2N(c2cccc(Cl)c2)C1=O (racemic) | –

Structure (SMILES) | Ki [1] | Ki [2] | Activity [3] | Activity [4] | Ki [6] | Activity [5]
CNCCCC1(C)Cc2ccccc2N(c2cc(Cl)cc(Cl)c2)C1=O (racemic) | > 200 nM | > 100 nM | 41% | 10% | > 200 nM | 39%
CNCCCCC1Cc2ccccc2N(c2ccccc2)C1=O (centres undefined) | > 200 nM | > 100 nM | 12% | -3% | > 200 nM | 53%
CNCCCC1(C)Cc2ccccc2N(c2ccc(C(C)C)cc2)C1=O (racemic) | > 200 nM | > 100 nM | 2% | 5% | > 200 nM | 18%
